The values below come from patent publication US9845310B2 (priority 2015, dated 2017).

pEC50: −log10 of the molar value. Like-named read-outs stand apart in the source and are kept apart here.

For test [1], the system named is naive Sprague Dawley rat hearts. To be noted: ex vivo isolated perfused rat heart, percent change over vehicle.
The test system of test [2] is heart failure rat model. Type of test: in vivo. To be noted: in vivo heart failure (MI) rat; acute administration for 30 min. On the procedure: Male Lewis rats (Charles River, USA) at 2-3 months of age were used for the study. […] APJ agonists were administered dose dependently acutely for a period of 30 min.
Test [3] concerns the target APJ (Homo sapiens (Human), UniProt P35414). Put plainly: [35S]GTPγS binding assay on membranes from CHO cells stably expressing human APJ receptor. Format: biochemical. To be noted: for EC50: Activity hAPJ SPA EC50 IP (μM); for pEC50: read-out: Activity hAPJ SPA EC50 IP. Background: GTPγS resists hydrolysis and so accumulates on activated G proteins.
Procedure: A GTPγS binding assay was performed on membranes prepared from CHO cells stably expressing human APJ receptor. The optimum experimental conditions for the concentrations of GDP, MgCl2, and NaCl in the assay buffer were initially determined. The assay was performed in assay buffer [20 mM HEPES, pH 7.5, 5 mM MgCl2, and 0.1% (w/v) BSA with 200 mM NaCl, 3 M GDP] and membranes expressing human APJ receptor/well along with WGA PS beads. The reaction was initiated by addition of 0.2 nM [^35S]GTPγS (Perkin Elmer Life and Analytical Sciences, Waltham USA) in the absence or presence of various ligands and incubated at RT for 90 min. Nonspecific binding was determined in the presence of 100 M GTPγS and was always less than 0.2% of total binding.

One may read the EC50 as the midpoint of the concentration-response curve. A high value points to a less potent agent. In general, pEC50 refers to the EC50 on a negative log10 scale, so that one unit is a factor of ten.

Sequence of APJ (P35414 whole entry): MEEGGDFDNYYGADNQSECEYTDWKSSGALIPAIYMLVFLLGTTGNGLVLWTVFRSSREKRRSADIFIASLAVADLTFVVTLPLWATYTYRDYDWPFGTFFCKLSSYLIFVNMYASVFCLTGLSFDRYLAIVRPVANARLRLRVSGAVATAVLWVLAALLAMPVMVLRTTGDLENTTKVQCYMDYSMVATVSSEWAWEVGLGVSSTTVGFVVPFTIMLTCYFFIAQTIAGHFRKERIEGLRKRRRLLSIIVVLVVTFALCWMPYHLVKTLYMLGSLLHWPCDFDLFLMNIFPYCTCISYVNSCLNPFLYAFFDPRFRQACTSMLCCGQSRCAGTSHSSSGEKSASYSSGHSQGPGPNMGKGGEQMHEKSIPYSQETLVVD

For the compound `COc1cccc(OC)c1-n1c(NS(=O)(=O)[C@H](C)[C@@H](C)c2ncc(Cl)cn2)nnc1-c1cccnc1` (racemic) [Example 694.0, (2R,3S)-3-(5-chloropyrimidin-2-yl)-N-(4-(2,6-dimethoxyphenyl)-5-(pyridin-3-yl)-4H-1,2,4-triazol-3-yl)butane-2-sulfonamide or (2S,3R)-3-(5-chloropyrimidin-2-yl)-N-(4-(2,6-dimethoxyphenyl)-5-(pyridin-3-yl)-4H-1,2,4-triazol-3-yl)butane-2-sulfonamide], the “Isolated Heart Assay dP/dtmax(%)” value in test [1] (contractility) turned out to be 18.0%. Also, the “Isolated Heart Assay dP/dtmin(%)” value in test [1] (relaxation (lusitropic)) worked out at 32.0%. In addition, the “MI Rat Model dP/dtmax(%)” value in test [2] came to 8%.
In test [3], `COc1ccnc(OC)c1-n1c(NS(=O)(=O)[C@@H](C)[C@H](OC)c2ccc(Cl)cn2)nnc1-c1cccnc1` (single isomer, unassigned) [Example 715.0, (1R,2S,P)-1-(5-chloro-2-pyridinyl)-N-(4-(2,4-dimethoxy-3-pyridinyl)-5-(3-pyridinyl)-4H-1,2,4-triazol-3-yl)-1-methoxy-2-propanesulfonamide or (1R,2S,M)-1-(5-chloro-2-pyridinyl)-N-(4-(2,4-dimethoxy-3-pyridinyl)-5-(3-pyridinyl)-4H-1,2,4-triazol-3-yl)-1-methoxy-2-propanesulfonamide] showed a concentration giving a half-maximal response (EC50) of 0.00031 µM.
`COc1cccc(-c2nnc(NS(=O)(=O)[C@@H](C)[C@H](OC)c3ncc(C)cn3)n2-c2c(OC)ccnc2OC)n1` (single isomer, unassigned) [Example 771.0] had a 50% effective concentration (EC50) in test [3] of 0.002 µM.
Still for that read-out and setting: the value for `COc1cccc(OC)c1-n1c(NS(=O)(=O)[C@@H](C)[C@H](OC)c2ncnn2C)nnc1-c1cncc(C)c1` (single isomer, unassigned) [Example 781.0, (1R,2S)-N-(4-(2,6-dimethoxyphenyl)-5-(5-methyl-3-pyridinyl)-4H-1,2,4-triazol-3-yl)-1-methoxy-1-(1-methyl-1H-1,2,4-triazol-5-yl)-2-propanesulfonamide or (1S,2R)-N-(4-(2,6-dimethoxyphenyl)-5-(5-methyl-3-pyridinyl)-4H-1,2,4-triazol-3-yl)-1-methoxy-1-(1-methyl-1H-1,2,4-triazol-5-yl)-2-propanesulfonamide] was 0.59 µM.
Compound `COc1cccc(OC)c1-n1c(NS(=O)(=O)[C@@H](C)[C@H](OC)c2ncnn2C)nnc1-c1cncc(C)c1` (single isomer, unassigned) [Example 782.0, (1R,2S)-N-(4-(2,6-dimethoxyphenyl)-5-(5-methyl-3-pyridinyl)-4H-1,2,4-triazol-3-yl)-1-methoxy-1-(1-methyl-1H-1,2,4-triazol-5-yl)-2-propanesulfonamide or (1S,2R)-N-(4-(2,6-dimethoxyphenyl)-5-(5-methyl-3-pyridinyl)-4H-1,2,4-triazol-3-yl)-1-methoxy-1-(1-methyl-1H-1,2,4-triazol-5-yl)-2-propanesulfonamide] registered an EC50 in test [3] of 0.028 µM.
For `COc1cccc(OC)c1-n1c(NS(=O)(=O)[C@H](C)[C@H](OC(C)C)c2cnc(C)cn2)nnc1-c1cccc(C)n1` (single isomer, unassigned) [Example 824.0, (1S,2S)-N-(4-(2,6-dimethoxyphenyl)-5-(6-methylpyridin-2-yl)-4H-1,2,4-triazol-3-yl)-1-isopropoxy-1-(5-methylpyrazin-2-yl)propane-2-sulfonamide or (1R,2R)-N-(4-(2,6-dimethoxyphenyl)-5-(6-methylpyridin-2-yl)-4H-1,2,4-triazol-3-yl)-1-isopropoxy-1-(5-methylpyrazin-2-yl)propane-2-sulfonamide], in test [3], it took 0.00047 µM to reach a half-maximal effect (EC50). Against the preceding compound, the EC50 is about 60-fold lower.
As for `COc1cccc(-c2nnc(NS(=O)(=O)[C@H](C)[C@H](OC(C)C)c3cnc(C)cn3)n2-c2c(OC)cccc2OC)n1` (single isomer, unassigned) [Example 825.0, (1S,2S)-N-(4-(2,6-dimethoxyphenyl)-5-(6-methoxypyridin-2-yl)-4H-1,2,4-triazol-3-yl)-1-isopropoxy-1-(5-methylpyrazin-2-yl)propane-2-sulfonamide or (1R,2R)-N-(4-(2,6-dimethoxyphenyl)-5-(6-methoxypyridin-2-yl)-4H-1,2,4-triazol-3-yl)-1-isopropoxy-1-(5-methylpyrazin-2-yl)propane-2-sulfonamide], the negative-log EC50 (pEC50) in test [3] is 9.82.
The same measure, in the same setting: the value for `COc1cccc(OC)c1-n1c(NS(=O)(=O)[C@H](C)[C@@H](OC(C)C)c2ncc(C)cn2)nnc1-c1cccnc1` (stereo in doubt) [Example 624.0, (1S,2R)-N-(4-(2,6-dimethoxyphenyl)-5-(3-pyridinyl)-4H-1,2,4-triazol-3-yl)-1-(1-methylethoxy)-1-(5-methyl-2-pyrimidinyl)-2-propanesulfonamide, (1R,2S)-N-(4-(2,6-dimethoxyphenyl)-5-(3-pyridinyl)-4H-1,2,4-triazol-3-yl)-1-(1-methylethoxy)-1-(5-methyl-2-pyrimidinyl)-2-propanesulfonamide] was 6.80.
The same measure, in the same setting: the value for `COc1cccc(OC)c1-n1c(NS(=O)(=O)[C@@H](C)[C@@H](OC(C)C)c2ncc(C)cn2)nnc1-c1cccnc1` (stereo in doubt) [Example 625.0] was 6.96; that for `COc1cccc(OC)c1-n1c(NS(=O)(=O)[C@H](C)[C@@H](OC(C)C)c2ncc(C)cn2)nnc1-c1cccnc1` (stereo in doubt) [Example 626.0, (1S,2R)-N-(4-(2,6-dimethoxyphenyl)-5-(3-pyridinyl)-4H-1,2,4-triazol-3-yl)-1-(1-methylethoxy)-1-(5-methyl-2-pyrimidinyl)-2-propanesulfonamide, (1R,2S)-N-(4-(2,6-dimethoxyphenyl)-5-(3-pyridinyl)-4H-1,2,4-triazol-3-yl)-1-(1-methylethoxy)-1-(5-methyl-2-pyrimidinyl)-2-propanesulfonamide] was 8.74.
`COc1cccc(-c2nnc(NS(=O)(=O)[C@@H](C)[C@H](O)c3ccc(F)cc3S(C)(=O)=O)n2-c2c(OC)cccc2OC)n1` [Example 288.0] showed a concentration giving a half-maximal response (EC50) in test [3] of 0.0011 µM.
Turning to `COc1ccc(Cl)c(OC)c1-n1c(-c2cncc(C)c2)nnc1S(=O)(=O)NCCc1ccc(Cl)cc1` [Example 373.0, 4-(3-chloro-2,6-dimethoxyphenyl)-N-(2-(4-chlorophenyl)ethyl)-5-(5-methyl-3-pyridinyl)-4H-1,2,4-triazole-3-sulfonamide], the half-maximal effective concentration (EC50) in test [3] was found to be 0.31 µM.
On the same count and under the same terms, the value for `COc1cccc(OC)c1-n1c(NS(=O)(=O)[C@@H](C)[C@H](OC)c2ncc(-c3ccccc3)cn2)nnc1-c1cncc(C)c1` [Example 428.0, (1R,2S)-N-(4-(2,6-dimethoxyphenyl)-5-(5-methylpyridin-3-yl)-4H-1,2,4-triazol-3-yl)-1-methoxy-1-(5-phenylpyrimidin-2-yl)propane-2-sulfonamide] was 0.0025 µM.
The same measure, in the same setting: the value for `CC#Cc1cnc([C@@H](OC)[C@H](C)S(=O)(=O)Nc2nnc(-c3cncc(C)c3)n2-c2c(OC)cccc2OC)nc1` [Example 535.0, (1R,2S)-N-(4-(2,6-dimethoxyphenyl)-5-(5-methylpyridin-3-yl)-4H-1,2,4-triazol-3-yl)-1-methoxy-1-(5-(prop-1-yn-1-yl)pyrimidin-2-yl)propane-2-sulfonamide] was 0.0013 µM; that for `COc1cccc(-c2nnc(NS(=O)(=O)CCc3ccc(C#N)cn3)n2-c2c(OC)cccc2OC)n1` [Example 550.0, 2-(5-cyanopyridin-2-yl)-N-(4-(2,6-dimethoxyphenyl)-5-(6-methoxypyridin-2-yl)-4H-1,2,4-triazol-3-yl)ethanesulfonamide] was 0.0008 µM.
`CO[C@H](c1ncc(C)cn1)[C@H](C)S(=O)(=O)Nc1nnc(-c2cncc(C)c2)n1-c1c(C)cccc1C` [Example 673.0, (1R,2S)-N-(4-(2,6-dimethylphenyl)-5-(5-methyl-3-pyridinyl)-4H-1,2,4-triazol-3-yl)-1-methoxy-1-(5-methyl-2-pyrimidinyl)-2-propanesulfonamide 2,2,2-trifluoroacetate]: in test [3], the EC50 amounted to 0.022 µM.
Still for that read-out and setting: the value for `COCCO[C@H](c1ncc(C)cn1)[C@H](C)S(=O)(=O)Nc1nnc(-c2cccc(OC)n2)n1-c1c(OC)cccc1OC` [Example 695.0, (1R,2S)-N-(4-(2,6-dimethoxyphenyl)-5-(6-methoxypyridin-2-yl)-4H-1,2,4-triazol-3-yl)-1-(2-methoxyethoxy)-1-(5-methylpyrimidin-2-yl)propane-2-sulfonamide] was 0.00012 µM.
Same read-out and setting: the same measure for `COc1cccc(OC)c1-n1c(NS(=O)(=O)[C@@H](C)[C@H](C)c2ncc(C#N)cn2)nnc1-c1cncc(C)c1` [Example 697.0, (2S,3R)-3-(5-cyano-2-pyrimidinyl)-N-(4-(2,6-dimethoxyphenyl)-5-(5-methyl-3-pyridinyl)-4H-1,2,4-triazol-3-yl)-2-butanesulfonamide]: 0.0007 µM; for `COc1cccc(OC)c1-n1c(NS(=O)(=O)[C@@H](C)[C@H](C)c2ncc(C)cn2)nnc1-c1cncc(C2CC2)c1` [Example 734.0, (2S,3R)-N-(5-(5-cyclopropylpyridin-3-yl)-4-(2,6-dimethoxyphenyl)-4H-1,2,4-triazol-3-yl)-3-(5-methylpyrimidin-2-yl)butane-2-sulfonamide]: 0.002 µM.
The same measure, in the same setting: the same measure for `COc1cnc([C@@H](C)[C@H](C)S(=O)(=O)Nc2nnc(-c3cccc(OC)n3)n2-c2c(F)cccc2F)cn1` [Example 787.0, (2S,3R)-N-(4-(2,6-difluorophenyl)-5-(6-methoxy-2-pyridinyl)-4H-1,2,4-triazol-3-yl)-3-(5-methoxy-2-pyrazinyl)-2-butanesulfonamide]: 0.00053 µM.
